Measured values reported in US20110015133A1, “PAX2 AND PAX8 AS TUMOUR TARGETS FOR IMMUNOLOGIC AND MOLECULAR TREATMENT STRATEGIES” (Charite-Universitatsmedizin Berlin, priority 2006, published 2011).

Columns and labels:
[1] = system: CD3+CD8+ lymphocytes from patients with renal cell and ovarian cancer; assay: Screening of PAX8 candidate epitopes for recognition by T-cells (IFNγ/TNFα) in carcinoma patients; assay type: cell-based, human; details: for recognition by T-cells of patients in peptide pools: 4 pools of three peptides each, every peptide in two pools
From the text: To identify T-cell epitopes, they were screened for recognition by T-cells from patients with renal cell and ovarian cancer which are PAX8 positive tumours secreting cytokine IFNγ or TNFα in response to PAX 8 or control HIV peptide. By using 4 pools of three peptides each, every peptide was present in two pools.

[2] = system: T2-cells loaded with peptide; assay: Cr release assay, peptide-loaded T2-cells; assay type: cell-based; details: T-cells induced against peptide 3496 in a renal cancer patient; 10:1 E:T; label = peptide loaded on T2
From the text: (§1) A panel of colorectal cancer cell lines has been characterized expressing both PAX2 and PAX8 to function as targets for recognition by specific T-cells (Table IV).

[3] = system: colon cancer cell line SW480; assay: Cr release assay, colon cancer cell line; assay type: cell-based
From the text: as §1

[4] = system: T-cells of a patient with renal cancer; assay: Induction of a T-cell response in a cancer patient; design: species or system human
[5] = patient # 1 Ovarian, first line (IFNγ)
[6] = patient # 1 Ovarian, second line (TNFα)
[7] = patient # 2 Ovarian, first line (IFNγ)
[8] = patient # 2 Ovarian, second line (TNFα)
[9] = patient # 3 Ovarian, first line (IFNγ)
[10] = patient # 3 Ovarian, second line (TNFα)
[11] = patient # 4 Ovarian, first line (IFNγ)
[12] = patient # 4 Ovarian, second line (TNFα)
[13] = patient # 5 Ovarian, first line (IFNγ)
[14] = patient # 5 Ovarian, second line (TNFα)
[15] = patient # 6 Ovarian, first line (IFNγ)
[16] = patient # 6 Ovarian, second line (TNFα)
[17] = patient # 7 Renal cell, first line (IFNγ)
[18] = patient # 7 Renal cell, second line (TNFα)
[19] = patient # 8 Renal cell, first line (IFNγ)
[20] = patient # 8 Renal cell, second line (TNFα)
[21] = patient # 9 Renal cell, first line (IFNγ)
[22] = patient # 9 Renal cell, second line (TNFα)

A L L S G R E M V (ALLSGREMV; listed as Homo sapiens) [Peptide 359-367]
no: PAX8 candidate epitope recognized (both pools containing it reactive) [1, 5] | PAX8 candidate epitope recognized (both pools containing it reactive) [1, 6] | PAX8 candidate epitope recognized (both pools containing it reactive) [1, 7] | PAX8 candidate epitope recognized (both pools containing it reactive) [1, 8] | PAX8 candidate epitope recognized (both pools containing it reactive) [1, 9] | PAX8 candidate epitope recognized (both pools containing it reactive) [1, 10] | PAX8 candidate epitope recognized (both pools containing it reactive) [1, 11] | PAX8 candidate epitope recognized (both pools containing it reactive) [1, 12] | PAX8 candidate epitope recognized (both pools containing it reactive) [1, 13] | PAX8 candidate epitope recognized (both pools containing it reactive) [1, 14] | PAX8 candidate epitope recognized (both pools containing it reactive) [1, 15] | PAX8 candidate epitope recognized (both pools containing it reactive) [1, 16] | PAX8 candidate epitope recognized (both pools containing it reactive) [1, 17] | PAX8 candidate epitope recognized (both pools containing it reactive) [1, 18] | PAX8 candidate epitope recognized (both pools containing it reactive) [1, 19] | PAX8 candidate epitope recognized (both pools containing it reactive) [1, 20] | PAX8 candidate epitope recognized (both pools containing it reactive) [1, 21] | PAX8 candidate epitope recognized (both pools containing it reactive) [1, 22]

N L S T H Q T Y P V (NLSTHQTYPV; listed as Homo sapiens) [Peptide 288-298]
no: PAX8 candidate epitope recognized (both pools containing it reactive) [1, 5] | PAX8 candidate epitope recognized (both pools containing it reactive) [1, 6] | PAX8 candidate epitope recognized (both pools containing it reactive) [1, 7] | PAX8 candidate epitope recognized (both pools containing it reactive) [1, 8] | PAX8 candidate epitope recognized (both pools containing it reactive) [1, 9] | PAX8 candidate epitope recognized (both pools containing it reactive) [1, 10] | PAX8 candidate epitope recognized (both pools containing it reactive) [1, 11] | PAX8 candidate epitope recognized (both pools containing it reactive) [1, 12] | PAX8 candidate epitope recognized (both pools containing it reactive) [1, 13] | PAX8 candidate epitope recognized (both pools containing it reactive) [1, 14] | PAX8 candidate epitope recognized (both pools containing it reactive) [1, 15] | PAX8 candidate epitope recognized (both pools containing it reactive) [1, 16] | PAX8 candidate epitope recognized (both pools containing it reactive) [1, 17] | PAX8 candidate epitope recognized (both pools containing it reactive) [1, 18] | PAX8 candidate epitope recognized (both pools containing it reactive) [1, 19] | PAX8 candidate epitope recognized (both pools containing it reactive) [1, 20] | PAX8 candidate epitope recognized (both pools containing it reactive) [1, 21] | PAX8 candidate epitope recognized (both pools containing it reactive) [1, 22]

S L S S S A F L D L (SLSSSAFLDL; listed as Homo sapiens) [Peptide 323-333]
yes: PAX8 candidate epitope recognized (both pools containing it reactive) [1, 5]
no: PAX8 candidate epitope recognized (both pools containing it reactive) [1, 6] | PAX8 candidate epitope recognized (both pools containing it reactive) [1, 7] | PAX8 candidate epitope recognized (both pools containing it reactive) [1, 8] | PAX8 candidate epitope recognized (both pools containing it reactive) [1, 9] | PAX8 candidate epitope recognized (both pools containing it reactive) [1, 10] | PAX8 candidate epitope recognized (both pools containing it reactive) [1, 11] | PAX8 candidate epitope recognized (both pools containing it reactive) [1, 12] | PAX8 candidate epitope recognized (both pools containing it reactive) [1, 13] | PAX8 candidate epitope recognized (both pools containing it reactive) [1, 14] | PAX8 candidate epitope recognized (both pools containing it reactive) [1, 15] | PAX8 candidate epitope recognized (both pools containing it reactive) [1, 16] | PAX8 candidate epitope recognized (both pools containing it reactive) [1, 17] | PAX8 candidate epitope recognized (both pools containing it reactive) [1, 18] | PAX8 candidate epitope recognized (both pools containing it reactive) [1, 19] | PAX8 candidate epitope recognized (both pools containing it reactive) [1, 20] | PAX8 candidate epitope recognized (both pools containing it reactive) [1, 21] | PAX8 candidate epitope recognized (both pools containing it reactive) [1, 22]
recognized in both pools: recognition by T-cells of patients in peptide pools [1]

T L D D G K A T L (TLDDGKATL; listed as Homo sapiens) [Peptide 270-278]
no: PAX8 candidate epitope recognized (both pools containing it reactive) [1, 5] | PAX8 candidate epitope recognized (both pools containing it reactive) [1, 6] | PAX8 candidate epitope recognized (both pools containing it reactive) [1, 7] | PAX8 candidate epitope recognized (both pools containing it reactive) [1, 8] | PAX8 candidate epitope recognized (both pools containing it reactive) [1, 9] | PAX8 candidate epitope recognized (both pools containing it reactive) [1, 10] | PAX8 candidate epitope recognized (both pools containing it reactive) [1, 11] | PAX8 candidate epitope recognized (both pools containing it reactive) [1, 12] | PAX8 candidate epitope recognized (both pools containing it reactive) [1, 13] | PAX8 candidate epitope recognized (both pools containing it reactive) [1, 14] | PAX8 candidate epitope recognized (both pools containing it reactive) [1, 15] | PAX8 candidate epitope recognized (both pools containing it reactive) [1, 16] | PAX8 candidate epitope recognized (both pools containing it reactive) [1, 17] | PAX8 candidate epitope recognized (both pools containing it reactive) [1, 18] | PAX8 candidate epitope recognized (both pools containing it reactive) [1, 19] | PAX8 candidate epitope recognized (both pools containing it reactive) [1, 20] | PAX8 candidate epitope recognized (both pools containing it reactive) [1, 21] | PAX8 candidate epitope recognized (both pools containing it reactive) [1, 22]

T L P G Y P P H I (TLPGYPPHI; listed as Homo sapiens) [Peptide 370-378]
no: PAX8 candidate epitope recognized (both pools containing it reactive) [1, 5] | PAX8 candidate epitope recognized (both pools containing it reactive) [1, 6] | PAX8 candidate epitope recognized (both pools containing it reactive) [1, 7] | PAX8 candidate epitope recognized (both pools containing it reactive) [1, 8] | PAX8 candidate epitope recognized (both pools containing it reactive) [1, 9] | PAX8 candidate epitope recognized (both pools containing it reactive) [1, 10] | PAX8 candidate epitope recognized (both pools containing it reactive) [1, 11] | PAX8 candidate epitope recognized (both pools containing it reactive) [1, 12] | PAX8 candidate epitope recognized (both pools containing it reactive) [1, 13] | PAX8 candidate epitope recognized (both pools containing it reactive) [1, 14] | PAX8 candidate epitope recognized (both pools containing it reactive) [1, 15] | PAX8 candidate epitope recognized (both pools containing it reactive) [1, 16] | PAX8 candidate epitope recognized (both pools containing it reactive) [1, 17] | PAX8 candidate epitope recognized (both pools containing it reactive) [1, 18] | PAX8 candidate epitope recognized (both pools containing it reactive) [1, 19] | PAX8 candidate epitope recognized (both pools containing it reactive) [1, 20] | PAX8 candidate epitope recognized (both pools containing it reactive) [1, 21] | PAX8 candidate epitope recognized (both pools containing it reactive) [1, 22]

T L P G Y P P H V [Peptide 3496]
10%: cytolysis of SW480 inhibited by cold target ([3]; T-cells induced against peptide 3496, with cold target)
32%: specific cytolysis (killing) of peptide-loaded T2-cells [2]
able to induce specific T-cells: induction of specific T-cells against the peptide [4]
28%: specific cytolysis of colon cancer cell line SW480 ([3]; T-cells induced against peptide 3496 in a renal cancer patient)

T L T P S N T P L (TLTPSNTPL; listed as Homo sapiens) [Peptide 277-285]
yes: PAX8 candidate epitope recognized (both pools containing it reactive) [1, 22]
no: PAX8 candidate epitope recognized (both pools containing it reactive) [1, 5] | PAX8 candidate epitope recognized (both pools containing it reactive) [1, 6] | PAX8 candidate epitope recognized (both pools containing it reactive) [1, 7] | PAX8 candidate epitope recognized (both pools containing it reactive) [1, 8] | PAX8 candidate epitope recognized (both pools containing it reactive) [1, 9] | PAX8 candidate epitope recognized (both pools containing it reactive) [1, 10] | PAX8 candidate epitope recognized (both pools containing it reactive) [1, 11] | PAX8 candidate epitope recognized (both pools containing it reactive) [1, 12] | PAX8 candidate epitope recognized (both pools containing it reactive) [1, 13] | PAX8 candidate epitope recognized (both pools containing it reactive) [1, 14] | PAX8 candidate epitope recognized (both pools containing it reactive) [1, 15] | PAX8 candidate epitope recognized (both pools containing it reactive) [1, 16] | PAX8 candidate epitope recognized (both pools containing it reactive) [1, 17] | PAX8 candidate epitope recognized (both pools containing it reactive) [1, 18] | PAX8 candidate epitope recognized (both pools containing it reactive) [1, 19] | PAX8 candidate epitope recognized (both pools containing it reactive) [1, 20] | PAX8 candidate epitope recognized (both pools containing it reactive) [1, 21]
recognized in both pools: recognition by T-cells of patients in peptide pools [1]
